# Measurements: paper PMC3731359 (PLoS ONE, 2013)
# Entries after “also recorded” stand apart in the source; their conditions may differ. Ends that are not written are not given here. * marks the point of attachment. Biotin = O=C1N[C@H]2[C@H](CS[C@H]2CCCCC(=O)*)N1
# T1: NAE (Homo sapiens, UniProt Q13564+Q8TBC4)
# T1 construct: made in house; host or cells: E. coli BL21(DE3)pLysS
# T1 sequence (Q8TBC4 22-463 limits assumed): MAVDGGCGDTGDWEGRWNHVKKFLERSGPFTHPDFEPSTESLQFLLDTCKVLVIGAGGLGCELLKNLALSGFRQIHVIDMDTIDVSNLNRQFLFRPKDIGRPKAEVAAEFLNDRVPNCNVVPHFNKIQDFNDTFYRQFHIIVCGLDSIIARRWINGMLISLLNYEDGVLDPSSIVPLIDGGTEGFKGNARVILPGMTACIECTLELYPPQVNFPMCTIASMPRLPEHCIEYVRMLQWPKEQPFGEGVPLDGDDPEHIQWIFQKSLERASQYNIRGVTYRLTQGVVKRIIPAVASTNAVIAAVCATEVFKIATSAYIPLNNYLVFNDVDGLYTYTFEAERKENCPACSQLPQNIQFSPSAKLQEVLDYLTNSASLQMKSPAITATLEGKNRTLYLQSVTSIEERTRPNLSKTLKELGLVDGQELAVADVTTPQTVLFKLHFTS
# T1 sequence (Q13564 1-534 partner): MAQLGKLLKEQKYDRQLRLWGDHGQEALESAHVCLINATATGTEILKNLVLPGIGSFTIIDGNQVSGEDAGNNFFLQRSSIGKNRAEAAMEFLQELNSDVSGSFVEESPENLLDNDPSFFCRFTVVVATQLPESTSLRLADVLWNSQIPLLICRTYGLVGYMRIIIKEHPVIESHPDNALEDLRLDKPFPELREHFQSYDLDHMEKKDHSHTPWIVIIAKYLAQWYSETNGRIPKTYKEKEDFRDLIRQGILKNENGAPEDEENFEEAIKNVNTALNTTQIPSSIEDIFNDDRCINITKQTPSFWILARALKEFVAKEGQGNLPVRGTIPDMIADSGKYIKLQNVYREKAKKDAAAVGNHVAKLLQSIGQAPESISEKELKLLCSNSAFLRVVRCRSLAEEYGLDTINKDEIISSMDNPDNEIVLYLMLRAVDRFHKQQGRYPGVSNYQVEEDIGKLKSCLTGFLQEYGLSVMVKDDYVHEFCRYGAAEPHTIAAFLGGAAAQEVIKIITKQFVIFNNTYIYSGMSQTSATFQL
# T2: Ubc12 (UniProt P61081 1-183)
# T2 construct: also called E2; source: expressed and purified as previously reported [33]
# T2 sequence (looked up): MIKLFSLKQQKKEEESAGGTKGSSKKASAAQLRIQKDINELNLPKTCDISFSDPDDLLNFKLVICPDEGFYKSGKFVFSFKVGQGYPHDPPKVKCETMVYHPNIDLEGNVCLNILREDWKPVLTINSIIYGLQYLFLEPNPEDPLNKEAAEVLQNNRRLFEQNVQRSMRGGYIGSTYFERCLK
# B1: biotin-pN26 (VLALRGG) (peptide)
# peptide: {Biotin-LC-LC}-VLALRGG
# notes: also called pN26 conjugated to biotin; source: synthetic peptide (EZBiolab), labelled with NHS-LC-LC-biotin, HPLC purified
# Key:
# [1] = tested on: cullin-3; assay: Western blot: transfer of UB variants to cullin-3; type: biochemical; conditions: 5 µM HA-tagged protein, 1 µM NAE, 1 µM Ubc12, 1 µM cullin, 1 mM ATP, 1 h, room temperature, anti-HA Western blot
# Experimental: (§1) Figure 6 Transfer of phage selected UB variants to NAE (E1), Ubc12 (E2), and cullin-3. HA-tagged wt UB, wt Nedd8 and UB variants were used in the assay. In the control reaction, either Ubc12 or cullin-3 in complex with Rbx1 was missing. The blots were probed with a mouse anti-HA antibody and a goat anti-mouse IgG antibody linked to HRP.
# (§2) 20 µL of the reaction mixture were loaded on a 4–15% SDS-PAGE gel (Bio-Rad). After electrophoresis, the protein bands were electroblotted onto a piece of polyvinylidene fluoride membrane (Bio-Rad). The membrane was blocked with 3% BSA in TBS buffer for 1 hour followed by incubation with 3% BSA in TBS buffer containing 1∶500 diluted 200 µg/mL anti-HA antibody (Santa Cruz Biotechnology) and 1∶10,000 diluted anti-mouse horseradish peroxidase conjugate (Pierce) for 1 hour, respectively. The membrane was then washed 5 times with TBS-T buffer and 5 times with TBS buffer followed by detection with the ECL luminescent detection kit (GE Healthcare).
# [2] = tested on: NAE (E1); assay: Western blot: formation of UB∼NAE thioester conjugates; type: biochemical; conditions: 5 µM HA-tagged protein, 1 µM NAE, 1 mM ATP, 1 h, room temperature, anti-HA Western blot
# Experimental: as §1, §2
# [3] = tested on: Ubc12 (E2); assay: Western blot: transfer of UB variants to Ubc12; type: biochemical; conditions: 5 µM HA-tagged protein, 1 µM NAE, 1 µM Ubc12, 1 µM cullin, 1 mM ATP, 1 h, room temperature, anti-HA Western blot
# Experimental: as §1, §2
# [4] = tested on: Ubc12; assay: Western blot: peptide transfer to Ubc12; type: biochemical; conditions: 5 µM peptide biotin-conjugated at N-terminus, 1 µM NAE, 1 µM Ubc12, 1 µM cullin, 1 h, room temperature, streptavidin-HRP blot
# Experimental: (§3) The peptides were conjugated to biotin at their N-termini. The Uba3 subunit of NAE formed the thioester conjugate with the peptides. The Western blot was probed with streptavidin conjugated to HRP.
# (§4) Biotin Conjugation of the Peptides
# (§5) Heptameric peptides with the C-terminal sequences of wt UB, wt Nedd8, and UB variants from phage selection were ordered from EZBiolab (Carmel, Indiana). The peptides were further purified by HPLC to be more than 95% pure. Peptide pN1 (2 mg, […]) was added to a solution of N-hydroxysuccinimidyl-6′-(biotinamido)-6-hexanamido hexanoate (NHS-LC-LC-biotin, Pierce) (4.4 mg, 7.750 µmol) in 50 mM sodium phosphate buffer (pH 7.0, 300 µL) and DMSO (300 µL). The reaction was allowed to proceed by stirring overnight at room temperature. The reaction mixture was then purified by HPLC with a gradient of 5–85% acetonitrile in 0.1% TFA/water at a flow rate of 10 mL/min over the course of 25 minutes. Biotin was conjugated to the N-terminal amino groups of the peptides pN7 and N26 with the same procedure. The purified biotin-peptide conjugates were lyophilized, and their identities were confirmed via MALDI-TOF mass spectrometry (positive mode): biotin-pN1 (VWLSYGG), calculated: 1256.10 Da (MNa^+), found: 1254.87 Da; biotin-pN7 (VMLFYGG), calculated: 1261.19 Da (MNa^+), found:1260.49 Da; biotin-pN26 (VLALRGG), calculated: 1138.06 Da (MH^+), found:1137.78 Da.
# (§6) To assay the transfer of biotin conjugated peptides to NAE, Ubc12 and cullin, 5 µM biotin labeled peptide, 1 µM NAE, 1 µM Ubc12 and 1 µM cullin were incubated with 1 mM ATP, 10 mM MgCl2 and 50 µM DTT in the TBS buffer for 1 hour at room temperature before SDS-PAGE and membrane blotting. The membrane was blocked with 3% BSA in TBS buffer for 1 hour followed by incubation with 3% BSA in TBS buffer containing 1∶10,000 diluted 1 mg/mL streptavidin-horse radish peroxidase conjugate (Pierce) for 1 hour. The membrane was then washed 5 times with TBS-T buffer and 5 times with TBS buffer followed by detection with the ECL luminescent detection kit.
# [5] = molecular target: T1, NAE; assay: ATP/PPi exchange assay (NAE activation kinetics); type: biochemical; conditions: for activation by NAE: 50 µM heptameric peptide, 0.5 µM NAE, 30 min, room temperature, versus background with no peptide added; for kcat/Km: Nedd8 mimicking heptameric peptides, 0.1 µM NAE, 10–1000 µM peptide, pH 7.5, room temperature
# Source text: We used the ATP/PPi exchange assay [28], [29] to measure the kinetics of NAE activation of UB mutants. In this assay, NAE catalyzes the condensation of UB with ATP to form a UB-AMP conjugate coupled to the release of PPi. Externally added PPi labeled with the radioactive isotope ^32P sets the reaction in reverse thus incorporating ^32PPi into ATP. Radioactive ATP formed in the reaction is captured by charcoal and quantified. The rate of ^32PPi exchange into ATP reflects the reactivities of NAE with the UB variants to form UB-AMP intermediates.
# The reaction was incubated for 30 min at room temperature and then quenched by the addition of 0.5 mL slurry of charcoal in 2% trichloroacetic acid. After centrifugation, the charcoal pellet was washed 3 times each time with 1 mL 2% trichloroacetic acid, and eventually resuspended in 0.5 mL water and 3.5 mL Ultima Gold LSC-cocktail (Perkin Elmer). The radioactivity bound to charcoal was determined by liquid scintillation counting.
# The reaction was incubated at room temperature for 5, 10, 15, 20 and 25 minutes before it was quenched with the addition of 0.5 mL slurry of charcoal in 2% trichloroacetic acid. The radioactivity incorporated into charcoal-bound ATP was measured by liquid scintillation counting. K1/2 and kcat values of the ATP-PPi exchange reaction were calculated by fitting the data to the Michaelis-Menten equation with the data analysis software Origin. To measure peptide activation by NAE, 0.1 µM NAE was used in the reaction with the concentration of the peptides varying from 10 µM to 1000 µM.
# [6] = molecular target: T1, NAE; assay: Western blot: peptide∼NAE thioester conjugate formation; type: biochemical; conditions: 5 µM peptide biotin-conjugated at N-terminus, 1 µM NAE, 1 mM ATP, 1 h, room temperature, streptavidin-HRP blot
# Experimental: as §3, §4, §5, §6
# [7] = tested on: cullin-3; assay: Inhibition of Nedd8 transfer to cullin (cullin neddylation); type: biochemical; conditions: 5–200 µM peptide, 0.5 µM NAE, 0.5 µM Ubc12, 1 µM cullin, 1 h, then 5 µM HA-Nedd8, 15 min, Western blot
# Source text: as §3
# [8] = tested on: cullin 3; assay: Western blot: peptide transfer to cullin 3; type: biochemical; conditions: 5 µM peptide biotin-conjugated at N-terminus, 1 µM NAE, 1 µM Ubc12, 1 µM cullin, 1 h, room temperature, streptavidin-HRP blot
# Experimental: as §3, §4, §5, §6
# [9] = molecular target: T1, NAE; assay: Inhibition of Nedd8 transfer through the cascade: NAE conjugate; type: biochemical; conditions: 5–200 µM peptide, 0.5 µM NAE, 0.5 µM Ubc12, 1 µM cullin, 1 h, then 5 µM HA-Nedd8, 15 min, Western blot
# Source text: as §3
# [10] = tested on: Ubc12; assay: Inhibition of Nedd8 transfer to Ubc12; type: biochemical; conditions: 5–200 µM peptide, 0.5 µM NAE, 0.5 µM Ubc12, 1 µM cullin, 1 h, then 5 µM HA-Nedd8, 15 min, Western blot
# Source text: as §3
# [11] = molecular target: T1, NAE; conditions: Arg72Ala mutant of UB by site directed mutagenesis; cited from earlier work
# [12] = tested on: UAE; conditions: Ala72 of Nedd8 mutated to Arg; cited from earlier work
# Source text: As expected the two proteins also adopt very similar structures featuring the β-grasp fold. Their E1 enzymes are also homologous to each other in both peptide sequences and crystal structures, except that NAE is a heterodimer of two subunits, APPBP1 and Uba3, while UAE is composed of a single chain [8], [20], [21].
# [13] = molecular target: NAE (Homo sapiens) (UniProt Q13564); conditions: cited from earlier work
# [14] = molecular target: T1, NAE; conditions: cited from earlier work
# Source text: […] binds to the nucleotide binding pocket of NAE as an AMP analog with a sulfamate ...
# [15] = molecular target: T2, Ubc12; assay: thioester conjugate formation (SDS-PAGE, Western blot); 5 µM biotin labeled peptide with 1 µM NAE, 1 µM Ubc12 and 1 µM cullin, 1 mM ATP, 10 mM MgCl2, 50 µM DTT, TBS, 1 hour, room temperature; streptavidin-HRP blot; covalent conjugates; conditions: both partners purified
Molecule,formation of peptide∼Ubc12 conjugates [4],activation by NAE [5],formation of peptide∼NAE thioester conjugates [6],Nedd8 conjugates with cullin after preloading with peptide [7],transfer of peptide to cullin 3 [8],Nedd8 conjugates with NAE after preloading with peptide [9],Nedd8 conjugates with Ubc12 after preloading with peptide [10],also measured
"N27: UB variant from phage selection, C-terminal sequence 71YQTYSG76, Gly75 replaced by Ser",,,,,,,,transfer to cullin (cullin modification) [1]: its transfer to Ubc12 and cullin is blocked; formation of UB∼NAE conjugates [2]: normal level of NAE activation and thioester formation with NAE; transfer from NAE to Ubc12 (UB∼Ubc12 conjugates) [3]: does not form a UB∼Ubc12 conjugate
"VMLFYGG [pN7, Nedd8-mimicking heptameric peptide VMLFYGG]",only has low activity for transferring to Ubc12,can be activated at a level significantly higher than the background,can form thioester conjugates with NAE; also recorded: form peptide∼NAE conjugates at a similar level as pN26,"did not produce any Nedd8 conjugates with NAE, Ubc12 or cullin",none of them can form peptide-cullin conjugates at a detectable level,"did not produce any Nedd8 conjugates with NAE, Ubc12 or cullin","did not produce any Nedd8 conjugates with NAE, Ubc12 or cullin",kcat/Km [5]: 2670 M⁻¹ s⁻¹
"N26: UB variant with single Arg72Ala mutation, C-terminal sequence 71LALRGG76",,,,,,,,activity with NAE [11]: previously found to be active with NAE; transfer to cullin (cullin modification) [1]: substantial cullin modification at a level similar or exceeding that of wt Nedd8; formation of UB∼NAE conjugates [2]: can function as the wt Nedd8 for thioester formation with NAE and Ubc12; transfer from NAE to Ubc12 (UB∼Ubc12 conjugates) [3]: efficiently forms UB∼Ubc12 conjugates
Nedd8 mutant: Nedd8 with Ala72 mutated to Arg,,,,,,,,activation by UAE [12]: can be activated by UAE; increase in affinity with UAE [12]: 65 fold
Nedd8 (from UniProt Q15843),,,,,,,,Kd [13]: 8.75 µM
"VWLSYGG [pN1, Nedd8-mimicking heptameric peptide VWLSYGG]",no observable formation of peptide∼Ubc12 conjugates,can be activated at a level significantly higher than the background,can form thioester conjugates with NAE; also recorded: form peptide∼NAE conjugates at a similar level as pN26,"did not produce any Nedd8 conjugates with NAE, Ubc12 or cullin",none of them can form peptide-cullin conjugates at a detectable level,"did not produce any Nedd8 conjugates with NAE, Ubc12 or cullin","did not produce any Nedd8 conjugates with NAE, Ubc12 or cullin",kcat/Km [5]: 3000 M⁻¹ s⁻¹
VLALRGG [pN26],strong activity for the formation of peptide∼Ubc12 conjugates,can be activated at a level significantly higher than the background,can form thioester conjugates with NAE,"did not produce any Nedd8 conjugates with NAE, Ubc12 or cullin",can be further transferred to cullin 3,"did not produce any Nedd8 conjugates with NAE, Ubc12 or cullin","did not produce any Nedd8 conjugates with NAE, Ubc12 or cullin",
NS(=O)(=O)OC[C@@H]1C[C@@H](n2ccc3c(N[C@H]4CCc5ccccc54)ncnc32)C[C@@H]1O [MLN4924],,,,,,,,inhibition of NAE [14]: potent inhibitor of NAE
B1,,,,,,,,binding result [15]: binds
